Test results: ChEMBL document CHEMBL1201862, “PubChem BioAssay data set” (2004)
Active and inactive are the calls of the source.

How the values were obtained:
[1] = HEK-293T viability loss, compound-treated – cell-based, uHTS hits, cytotoxicity control for B/T-cell NF-kB inhibitor project, dose response (AID 489019); type: functional;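 also: IC50 reflects cytotoxicity as loss of cell viability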
[2] = cAMP pathway inhibition in counterscreen cell line – TR-FRET cAMP detection, counter-screen for MC4R biased antagonist project, dose response (AID 602305); type: functional, cell-based;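 also: U2OS cells stimulated with forskolin near its EC80 as the cAMP inducer; potency is for inhibition of forskolin-stimulated cAMP signaling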
[3] = non-specific 3'UTR reporter inhibition in Clone20-Shn3RL – cell-based, Renilla luciferase, cherry-picked, counter-screen for Shn3 inhibitor project, dose response (AID 624133); type: functional
[4] = loss of viability in HepG2 cells – cell-based, CellTiter-Glo, cherry-picked, cytotoxicity control for Shn3 inhibitor project, dose response (AID 624134); type: functional
Jurkat = assay: blockers of NF-kB activation in T cells – Jurkat, luciferase reporter, luminescence, B- and T-cell, dose response (AID 489004); type: functional, cell-based; conditions: Homo sapiens;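 also: NF-kB luciferase reporter Jurkat cells stimulated with PMA plus ionomycin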
[5] = molecular target: T1, Replicative DNA helicase DnaB (Mycobacterium tuberculosis, UniProt P9WMR3); assay: DnaB intein splicing inhibitors, dose response, biochemical, cell-free fluorescence (AID 449749); type: functional
T1 sequence (P9WMR3 whole entry): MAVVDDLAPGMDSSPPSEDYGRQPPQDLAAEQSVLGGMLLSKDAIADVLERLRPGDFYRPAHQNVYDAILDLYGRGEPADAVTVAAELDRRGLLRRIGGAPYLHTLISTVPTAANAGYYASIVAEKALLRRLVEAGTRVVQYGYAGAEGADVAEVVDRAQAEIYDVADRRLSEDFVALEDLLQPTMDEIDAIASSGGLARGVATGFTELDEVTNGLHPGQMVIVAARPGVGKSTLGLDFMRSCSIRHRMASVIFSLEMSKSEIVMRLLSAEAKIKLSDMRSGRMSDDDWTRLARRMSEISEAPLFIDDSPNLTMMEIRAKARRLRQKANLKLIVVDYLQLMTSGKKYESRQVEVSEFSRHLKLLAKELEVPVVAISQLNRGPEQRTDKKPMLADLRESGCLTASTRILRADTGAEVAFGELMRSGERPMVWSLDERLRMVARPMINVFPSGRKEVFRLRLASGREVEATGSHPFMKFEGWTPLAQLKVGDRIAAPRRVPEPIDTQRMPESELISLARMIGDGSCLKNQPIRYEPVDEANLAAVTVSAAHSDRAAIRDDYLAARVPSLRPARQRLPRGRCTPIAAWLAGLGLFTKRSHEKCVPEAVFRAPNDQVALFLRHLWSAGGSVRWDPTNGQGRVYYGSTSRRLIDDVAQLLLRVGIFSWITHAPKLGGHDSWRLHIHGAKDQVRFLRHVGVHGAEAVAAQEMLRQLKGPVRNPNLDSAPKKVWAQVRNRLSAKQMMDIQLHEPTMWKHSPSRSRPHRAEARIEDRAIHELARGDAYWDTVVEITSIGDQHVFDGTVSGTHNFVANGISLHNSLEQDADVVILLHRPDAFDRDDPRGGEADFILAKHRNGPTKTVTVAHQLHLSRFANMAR

[6] = Luminescence-based dose response cell-based high throughput screening assay for cytotoxic compounds using the IEC-6 intestinal epithelial cell line. [Related pubchem assays: 1858 (Summary AID.), 1825 (Counterscreen.), 1907 (Confirmation screen.)]; type: functional
Melanocortin receptor 4 = Melanocortin receptor 4 (Homo sapiens, UniProt P32245); assay: inhibitors of MC4R cAMP signaling – cell-based, TR-FRET, biased antagonists, dose response (AID 602298); type: functional;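 also: antagonist potency against agonist-stimulated cAMP production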
[7] = molecular target: T2, Heat shock factor protein 1 (Mus musculus, UniProt P38532); assay: decrease of HSF1-responsive luciferase luminescence – cell-based, NIH3T3, dose retest, confirmation (AID 2382); type: functional;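 also: NIH3T3 fibroblasts with HSF1-driven luciferase reporter stressed by proteasome inhibitor MG132; luminescence from HSF1-driven luciferase expression after 8 hours of MG132 stress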
T2 sequence (P38532 whole entry): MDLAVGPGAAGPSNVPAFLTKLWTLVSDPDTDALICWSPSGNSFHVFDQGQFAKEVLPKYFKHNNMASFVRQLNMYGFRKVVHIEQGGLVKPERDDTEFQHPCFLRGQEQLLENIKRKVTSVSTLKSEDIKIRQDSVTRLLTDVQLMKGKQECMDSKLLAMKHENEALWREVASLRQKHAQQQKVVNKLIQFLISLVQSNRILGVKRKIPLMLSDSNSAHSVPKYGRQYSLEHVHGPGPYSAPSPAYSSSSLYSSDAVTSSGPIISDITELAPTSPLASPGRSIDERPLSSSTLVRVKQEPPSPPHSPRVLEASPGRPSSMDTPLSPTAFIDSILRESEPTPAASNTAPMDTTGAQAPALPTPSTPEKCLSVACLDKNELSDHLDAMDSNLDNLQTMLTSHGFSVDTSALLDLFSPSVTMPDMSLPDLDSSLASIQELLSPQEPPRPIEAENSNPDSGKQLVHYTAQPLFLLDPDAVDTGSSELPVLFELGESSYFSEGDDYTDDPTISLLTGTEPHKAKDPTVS

[8] = viability of PTEN-deleted HCT116 cells – cell-based, HCT116 PTEN knockout, dose response (AID 1047); type: functional;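 also: HCT116 colon tumor cells with PTEN knocked out; cells exposed to compound for 60 hours before readout; potency for loss of cell viability measured by luminescence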
[9] = HIV-1 Vif–A3G interaction blockers – biochemical, TR-FRET, GST-Vif 1-94, biotin-A3G peptide, dose response retest, primary screen (AID 1117319); type: functional;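 also: TR-FRET signal of purified GST-Vif binding a biotinylated A3G peptide; inhibitors lower the FRET signal by blocking Vif and A3G binding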
[10] = viability loss in Vero cells – cytotoxicity control for Vif-APOBEC3G degradation inhibitor project, dose response (AID 1117358); type: functional; conditions: Vero
[11] = viability of HCT116 lacking mutant beta-catenin – cell-based, human colon tumor, dose response (AID 1045); type: functional;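 also: HCT116 colon tumor cells with beta catenin knocked out; cells exposed to compound for 60 hours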
[12] = reduction of Shn3 3'UTR-driven luciferase in osteoblasts – cell-based, Clone20 osteoblasts, firefly luciferase, cherry-picked, dose response (AID 624132); type: functional;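 also: firefly luciferase luminescence from reporter carrying the Shn3 3'UTR in osteoblasts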
Protein RecA = molecular target: T3, Protein RecA (Mycobacterium tuberculosis, UniProt P9WHJ3); assay: Fluorescence Cell-Free Homogeneous Dose Retest to Identify Inhibitors of RecA-Intein Splicing Activity. [Related pubchem assays (depositor defined):AID2097, AID2223, AID489010, AID492950]; type: functional
T3 sequence (P9WHJ3 whole entry): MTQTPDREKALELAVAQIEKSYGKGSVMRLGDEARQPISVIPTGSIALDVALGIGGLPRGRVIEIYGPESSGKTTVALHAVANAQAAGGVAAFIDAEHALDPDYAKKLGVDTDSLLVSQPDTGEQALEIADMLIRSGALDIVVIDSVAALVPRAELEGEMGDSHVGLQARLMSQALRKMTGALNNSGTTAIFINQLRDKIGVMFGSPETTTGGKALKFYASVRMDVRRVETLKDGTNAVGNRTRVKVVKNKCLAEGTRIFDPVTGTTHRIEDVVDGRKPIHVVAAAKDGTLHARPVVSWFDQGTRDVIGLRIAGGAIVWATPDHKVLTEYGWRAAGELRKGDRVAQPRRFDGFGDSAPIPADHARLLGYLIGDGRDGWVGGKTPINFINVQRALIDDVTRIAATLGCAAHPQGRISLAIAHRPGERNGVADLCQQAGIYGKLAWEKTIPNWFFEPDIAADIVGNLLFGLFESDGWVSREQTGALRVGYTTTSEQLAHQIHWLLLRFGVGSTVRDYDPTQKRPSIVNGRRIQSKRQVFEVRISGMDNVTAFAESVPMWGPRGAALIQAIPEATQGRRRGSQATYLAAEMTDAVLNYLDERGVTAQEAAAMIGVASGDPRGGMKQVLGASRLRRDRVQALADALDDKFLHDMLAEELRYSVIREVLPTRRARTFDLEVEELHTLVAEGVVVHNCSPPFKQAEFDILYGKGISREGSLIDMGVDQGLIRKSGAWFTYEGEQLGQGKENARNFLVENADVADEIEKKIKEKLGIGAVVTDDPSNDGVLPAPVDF

[13] = molecular target: Beta-adrenergic receptor kinase 1 (Homo sapiens, UniProt P25098); assay: blockers of aptamer binding to GRK2 – biochemical, flow cytometry beads, FAM-aptamer, powder set 1, dose response (AID 588720)
INS1 = assay: suppression of NO production in INS-1E cells – cell-based, Griess absorbance, dry powder, dose response (AID 488866); type: functional; conditions: Rattus norvegicus
A-375 [14] = assay: MITF: Counter assay: A375 proliferation Measured in Cell-Based System Using Plate Reader - 2084-03_Inhibitor_Dose_DryPowder_Activity. [Related pubchem assays (depositor defined):AID488944]; type: functional; conditions: Homo sapiens
A-375 [15] = assay: proliferation inhibition in MITF-low A375 cells – cell-based, cherry-pick samples, set 2, counter-screen for MITF modulator project, dose response (AID 540335); type: functional; conditions: Homo sapiens
SUMO E1/E2 = SUMO E1/E2 (Homo sapiens, UniProt P63279+Q9UBE0+Q9UBT2); assay: SAR analysis of SUMOylation using HTRF in an in-Vitro dose response assay. [Related pubchem assays (depositor defined):AID2006, AID2011, AID2018, AID2069, AID2658]; type: functional
[16] = molecular target: T4, Voltage-gated N-type calcium channel alpha-1B subunit/Amyloid beta A4 precursor protein-binding family A member 1 (Homo sapiens, UniProt Q00975+Q02410); assay: disruptors of Mint-PDZ/N-type channel peptide interaction – biochemical, HTRF, SAR follow-up (AID 2489); type: functional
[17] = molecular target: T4, Voltage-gated N-type calcium channel alpha-1B subunit/Amyloid beta A4 precursor protein-binding family A member 1; assay: disruptors of Mint-PDZ/N-type channel peptide interaction – biochemical, HTRF, set 2, SAR follow-up (AID 434980); type: functional

T4 sequence (Q00975 whole entry): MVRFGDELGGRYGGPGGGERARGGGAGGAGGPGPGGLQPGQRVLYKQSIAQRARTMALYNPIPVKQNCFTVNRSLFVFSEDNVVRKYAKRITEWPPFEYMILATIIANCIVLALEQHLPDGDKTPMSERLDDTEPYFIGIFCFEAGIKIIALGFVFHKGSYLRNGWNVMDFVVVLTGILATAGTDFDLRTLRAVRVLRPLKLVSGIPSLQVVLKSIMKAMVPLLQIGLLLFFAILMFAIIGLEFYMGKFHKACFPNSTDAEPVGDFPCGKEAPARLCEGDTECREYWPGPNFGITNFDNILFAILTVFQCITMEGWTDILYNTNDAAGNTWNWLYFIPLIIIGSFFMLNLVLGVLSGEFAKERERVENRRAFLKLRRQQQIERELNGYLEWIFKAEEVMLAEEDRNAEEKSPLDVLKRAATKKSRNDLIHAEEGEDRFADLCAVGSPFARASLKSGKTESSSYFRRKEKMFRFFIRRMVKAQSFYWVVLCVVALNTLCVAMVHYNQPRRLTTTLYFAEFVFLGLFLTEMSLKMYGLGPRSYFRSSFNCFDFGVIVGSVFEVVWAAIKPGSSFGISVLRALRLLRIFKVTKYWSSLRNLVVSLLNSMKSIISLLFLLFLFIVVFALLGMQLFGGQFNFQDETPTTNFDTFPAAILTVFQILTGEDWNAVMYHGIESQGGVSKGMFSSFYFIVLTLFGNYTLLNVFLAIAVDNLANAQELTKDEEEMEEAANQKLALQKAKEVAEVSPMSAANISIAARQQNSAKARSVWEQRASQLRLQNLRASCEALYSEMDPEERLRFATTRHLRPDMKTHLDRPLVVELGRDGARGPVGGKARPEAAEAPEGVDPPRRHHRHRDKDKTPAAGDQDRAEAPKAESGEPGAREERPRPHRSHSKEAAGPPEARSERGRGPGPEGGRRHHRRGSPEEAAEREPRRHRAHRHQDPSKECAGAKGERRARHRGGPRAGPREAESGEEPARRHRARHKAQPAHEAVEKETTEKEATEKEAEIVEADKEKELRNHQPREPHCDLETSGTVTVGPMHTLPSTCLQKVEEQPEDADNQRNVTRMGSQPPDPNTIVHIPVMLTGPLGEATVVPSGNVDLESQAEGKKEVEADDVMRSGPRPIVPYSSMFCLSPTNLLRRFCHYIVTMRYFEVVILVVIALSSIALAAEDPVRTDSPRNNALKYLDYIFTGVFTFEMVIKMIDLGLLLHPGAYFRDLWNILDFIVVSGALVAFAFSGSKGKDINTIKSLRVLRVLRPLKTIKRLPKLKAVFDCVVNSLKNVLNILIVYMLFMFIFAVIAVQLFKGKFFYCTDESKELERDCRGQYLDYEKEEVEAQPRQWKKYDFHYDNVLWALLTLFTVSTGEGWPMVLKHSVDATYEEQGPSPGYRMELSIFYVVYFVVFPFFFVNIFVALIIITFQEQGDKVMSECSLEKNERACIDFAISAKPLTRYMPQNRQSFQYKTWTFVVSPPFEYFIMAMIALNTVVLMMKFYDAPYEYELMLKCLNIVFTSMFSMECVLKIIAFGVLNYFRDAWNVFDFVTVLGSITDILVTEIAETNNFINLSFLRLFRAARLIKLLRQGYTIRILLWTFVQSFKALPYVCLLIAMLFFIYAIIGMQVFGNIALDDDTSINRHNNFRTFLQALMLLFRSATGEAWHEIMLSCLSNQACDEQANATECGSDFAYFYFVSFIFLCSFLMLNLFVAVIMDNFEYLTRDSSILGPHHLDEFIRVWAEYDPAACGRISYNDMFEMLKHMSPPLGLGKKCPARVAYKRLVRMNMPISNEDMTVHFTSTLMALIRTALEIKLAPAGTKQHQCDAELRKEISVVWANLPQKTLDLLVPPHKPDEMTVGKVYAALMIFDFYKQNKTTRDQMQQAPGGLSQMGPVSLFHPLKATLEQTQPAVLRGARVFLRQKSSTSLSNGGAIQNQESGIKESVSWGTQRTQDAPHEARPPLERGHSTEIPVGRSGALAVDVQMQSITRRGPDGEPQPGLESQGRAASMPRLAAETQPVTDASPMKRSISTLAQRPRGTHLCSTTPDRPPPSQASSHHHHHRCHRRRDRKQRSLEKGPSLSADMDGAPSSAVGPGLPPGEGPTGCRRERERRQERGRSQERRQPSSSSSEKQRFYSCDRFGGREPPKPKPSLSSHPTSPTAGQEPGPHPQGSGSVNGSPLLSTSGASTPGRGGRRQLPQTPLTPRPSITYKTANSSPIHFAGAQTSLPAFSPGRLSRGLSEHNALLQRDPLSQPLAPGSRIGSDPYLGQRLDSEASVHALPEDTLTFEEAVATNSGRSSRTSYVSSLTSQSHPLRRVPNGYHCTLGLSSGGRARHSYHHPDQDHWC
T4 sequence (Q02410 whole entry): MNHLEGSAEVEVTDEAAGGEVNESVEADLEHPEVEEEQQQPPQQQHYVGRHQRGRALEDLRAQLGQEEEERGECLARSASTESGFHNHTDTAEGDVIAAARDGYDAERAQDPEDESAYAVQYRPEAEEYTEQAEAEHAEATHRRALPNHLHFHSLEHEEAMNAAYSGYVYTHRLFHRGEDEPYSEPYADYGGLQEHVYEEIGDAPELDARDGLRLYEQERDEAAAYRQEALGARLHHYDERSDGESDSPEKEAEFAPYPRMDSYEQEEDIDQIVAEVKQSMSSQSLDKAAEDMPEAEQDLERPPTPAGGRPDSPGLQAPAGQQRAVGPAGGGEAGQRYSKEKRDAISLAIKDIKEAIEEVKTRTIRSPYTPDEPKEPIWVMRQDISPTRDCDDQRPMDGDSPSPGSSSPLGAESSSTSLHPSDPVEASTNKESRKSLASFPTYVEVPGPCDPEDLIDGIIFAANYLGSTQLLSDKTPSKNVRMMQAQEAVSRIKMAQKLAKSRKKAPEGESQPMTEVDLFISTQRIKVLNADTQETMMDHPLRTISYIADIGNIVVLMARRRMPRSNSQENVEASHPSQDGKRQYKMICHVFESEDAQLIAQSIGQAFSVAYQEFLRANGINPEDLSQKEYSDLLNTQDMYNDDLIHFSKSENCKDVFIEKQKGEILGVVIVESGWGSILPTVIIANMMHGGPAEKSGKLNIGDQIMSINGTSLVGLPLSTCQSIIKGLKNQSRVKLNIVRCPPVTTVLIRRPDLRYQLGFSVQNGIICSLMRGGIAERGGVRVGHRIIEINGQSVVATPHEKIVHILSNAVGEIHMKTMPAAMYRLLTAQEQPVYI
Chain of Melanocortin receptor 4 (P32245 whole entry): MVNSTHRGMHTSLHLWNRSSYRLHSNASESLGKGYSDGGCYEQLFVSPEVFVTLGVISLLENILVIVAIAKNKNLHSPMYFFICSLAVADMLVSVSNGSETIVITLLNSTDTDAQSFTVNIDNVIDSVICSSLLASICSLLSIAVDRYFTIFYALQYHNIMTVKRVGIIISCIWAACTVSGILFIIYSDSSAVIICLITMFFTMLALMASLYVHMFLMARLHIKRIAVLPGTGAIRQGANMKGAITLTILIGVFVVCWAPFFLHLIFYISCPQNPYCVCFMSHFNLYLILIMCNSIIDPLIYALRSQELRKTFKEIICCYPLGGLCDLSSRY
Chain of Beta-adrenergic receptor kinase 1 (P25098 whole entry): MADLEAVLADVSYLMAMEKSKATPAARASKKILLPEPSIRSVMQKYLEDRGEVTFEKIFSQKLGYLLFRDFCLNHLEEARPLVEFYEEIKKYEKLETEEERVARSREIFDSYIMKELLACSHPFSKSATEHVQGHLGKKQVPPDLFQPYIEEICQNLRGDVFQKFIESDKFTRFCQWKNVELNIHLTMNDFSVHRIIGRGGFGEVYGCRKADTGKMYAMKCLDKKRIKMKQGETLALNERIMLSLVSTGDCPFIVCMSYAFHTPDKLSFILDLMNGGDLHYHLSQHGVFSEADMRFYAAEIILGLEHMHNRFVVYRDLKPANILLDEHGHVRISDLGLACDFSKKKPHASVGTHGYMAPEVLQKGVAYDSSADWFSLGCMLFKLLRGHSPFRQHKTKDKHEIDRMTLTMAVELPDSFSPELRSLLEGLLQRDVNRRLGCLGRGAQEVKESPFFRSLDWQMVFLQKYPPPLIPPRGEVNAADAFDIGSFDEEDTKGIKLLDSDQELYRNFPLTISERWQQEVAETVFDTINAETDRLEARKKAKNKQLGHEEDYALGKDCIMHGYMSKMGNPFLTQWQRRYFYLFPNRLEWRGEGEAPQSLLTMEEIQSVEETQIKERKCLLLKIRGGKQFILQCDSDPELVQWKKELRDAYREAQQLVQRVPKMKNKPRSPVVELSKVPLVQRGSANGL

## C#CC(=O)N(c1cc(OC)ccc1OC)C(C(=O)NC1CCCC1)c1cccs1 (configuration not stated)
[1]
  IC50: 55.6 µM (inactive)
[2]
  IC50: > 64.6 µM (inactive)
[3]
  AC50: 0.563 µM (active)
[4]
  AC50: 1.25 µM (active)
Jurkat
  IC50: 0.23 µM (active)
[5]
  AC50: 1.94 µM (active)
[6]
  IC50: 0.096 µM (active)
Melanocortin receptor 4
  IC50: > 64.6 µM (inactive)
[7]
  EC50: 0.692 µM (active)
[8]
  EC50: 4.13 µM (active)
[9]
  IC50: > 100 µM (active)
[10]
  CC50: 0.087 µM (active)
[11]
  EC50: 3.99 µM (active)
[12]
  AC50: 4.57 µM (active)
Protein RecA
  EC50: 2.46 µM (active)

## CCOc1ccc(CCNC(=O)CCS(=O)(=O)c2ccc(Br)cc2)cc1OCC
[13]
  EC50: 17.7 µM (inactive)

## COc1ccc(S(=O)(=O)N(C)C[C@@H]2Oc3c(NC(=O)Nc4ccccc4-c4ccccc4)cccc3C(=O)N([C@@H](C)CO)C[C@H]2C)cc1
INS1
  AC50: 33.4 µM (active)

## COc1ccc(CCC(=O)N2CCc3ccccc32)cc1
A-375 [14]
  AC50: > 35 µM (active)
A-375 [15]
  AC50: > 35 µM (active)

## Cc1ccccc1CNC(=O)COC(=O)c1cc(-c2ccco2)nc2ccccc12
SUMO E1/E2
  IC50: 3.83 µM (active)
[16]
  IC50: 20.2 µM (active)
[17]
  IC50: 10.9 µM (active)
